Data as given in patent US11970470B1, “{5-chloro-2-(2-(3-(substitutedphenyl)-1,2,4-oxadiazol-5-yl)ethyl)phenyl}(phenyl)methanones as larvicidal agents” (KING FAISAL UNIVERSITY, priority 2023, dated 2024).
Read-outs that look alike come from different tables or passages of the source.

Experiments:
Anopheles arabiensis = experiment: Larvicidal screening (WHO protocol), 3rd instar larvae; format: in vivo; conditions: for mortality at 4 µg/mL: 4 μg/mL
Experimental: Anopheles arabiensis was used in the study according to the protocol described by WHO (1975) guidelines in an insectary simulating the temperature (27.5° C.), humidity (70%), and lighting (12/12) of a malaria-endemic environment. One mL of test compound (1 mg/mL) was added to 1 mL of acetone and followed by […] of distilled water to obtain a final concentration of 4 μg/mL. Thirty individuals of 3rd instar larvae were introduced into a container. Negative control was set up using the solvent (acetone) and distilled water, and a positive control included Temephos, which is an active emulsified organophosphate larvicidal used by malaria control programs. Larval mortality was examined for each container separately for 24 h and fed specially made cat food that contained less oil/fat content. The percentage of mortality was determined relative to the initial number of larvae exposed.
Differences in larval mortality between treatments were assessed with generalized linear models using a quasi-Poisson link function. Anopheles arabiensis mortality was the dependent variable, while fixed effects were test compounds and observation period (24 and 48 h). A p-value<0.05 was considered statistically significant. Throughout the text, the results are presented as the adjusted mean±the standard error.

[1] = Anopheles arabiensis larvae exposed for 24 h, read-out: Mortality in % (Mean ± SEM) 24 h
[2] = Anopheles arabiensis larvae exposed for 48 h, read-out: Mortality in % (Mean ± SEM) 48 h

SMILES	melting point	mortality at 4 µg/mL (Anopheles arabiensis; [1])	mortality at 4 µg/mL (Anopheles arabiensis; [2])	larval mortality rate in 48 hours (Anopheles arabiensis; in 48 hours, unit not given)
O=C(c1ccccc1)c1cc(Cl)ccc1OCc1nc(-c2ccc(F)cc2)no1 [Compound 5b, {5-Chloro-2-[(3-(4-fluorophenyl)-1,2,4-oxadiazol-5-yl)-methoxy]-phenyl}-(phenyl)-methanone]	–	91.7 ± 1.61%	94.7 ± 1.9%	–
O=C(c1ccccc1)c1cc(Cl)ccc1OCc1nc(-c2ccc(F)c(Cl)c2)no1 [Compound 5f, {5-Chloro-2-[(3-(3-chloro-4-fluorophenyl)-1,2,4-oxadiazol-5-yl)-methoxy]-phenyl}-(phenyl)-methanone]	–	98.2 ± 1.22%	100 ± 2.01%	100.00±2.01
CC(C)c1ccc(-c2noc(COc3ccc(Cl)cc3C(=O)c3ccccc3)n2)cc1 [Compound 5g, {5-Chloro-2-[(3-(4-isopropylphenyl)-1,2,4-oxadiazol-5-yl)-methoxy]-phenyl}-(phenyl)-methanone]	110 to 112 °C	–	–	–
Cc1cc(-c2noc(COc3ccc(Cl)cc3C(=O)c3ccccc3)n2)ccc1F [Compound 5h, {5-Chloro-2-[(3-(4-fluoro-3-methylphenyl)-1,2,4-oxadiazol-5-yl)-methoxy]-phenyl}-(phenyl)-methanone]	–	83.6 ± 2.01%	86.1 ± 1.95%	–
COc1cc(-c2noc(COc3ccc(Cl)cc3C(=O)c3ccccc3)n2)ccc1F [Compound 5i, {5-Chloro-2-[(3-(4-fluoro-3-methoxyphenyl)-1,2,4-oxadiazol-5-yl)-methoxy]-phenyl}-(phenyl)-methanone]	–	79.5 ± 1.09%	84.7 ± 1.88%	–

Further lines, with some results ahead:

melting point	SMILES	mortality at 4 µg/mL (Anopheles arabiensis; [1])	mortality at 4 µg/mL (Anopheles arabiensis; [2])	larval mortality rate in 48 hours (Anopheles arabiensis; in 48 hours, unit not given)
108 to 110 °C	O=C(c1ccccc1)c1cc(Cl)ccc1OCc1nc(-c2ccccc2)no1 [Compound 5a, {5-Chloro-2-[(3-(phenyl)-1,2,4-oxadiazol-5-yl)-methoxy]-phenyl}-(phenyl)-methanone]	–	–	–
124 to 126 °C	O=C(c1ccccc1)c1cc(Cl)ccc1OCc1nc(-c2ccc(I)cc2)no1 [Compound 5c, {5-chloro-2-[(3-(4-iodophenyl)-1,2,4-oxadiazol-5-yl)-methoxy]-phenyl}-(phenyl)-methanone]	–	–	–
87 to 89 °C	Cc1cc(F)c(-c2noc(COc3ccc(Cl)cc3C(=O)c3ccccc3)n2)cc1F [Compound 5d, {5-Chloro-2-[(3-(2,5-difluoro-4-methylphenyl)-1,2,4-oxadiazol-5-yl)-methoxy]-phenyl}-(phenyl)-methanone]	–	–	–
80 to 82 °C	CCOc1ccc(-c2noc(COc3ccc(Cl)cc3C(=O)c3ccccc3)n2)cc1 [Compound 5e, {5-Chloro-2-[(3-(4-ethoxyphenyl)-1,2,4-oxadiazol-5-yl)-methoxy]-phenyl}-(phenyl)-methanone]	–	–	–
